From patent publication US12528819B2 (priority 2016, dated 2026)

Target: T1, α5β2γ2 subtype GABAAR (Homo sapiens, UniProt P18507+P31644)
T1 construct: expressed in transfected cells
T1 sequence (P31644 32-462): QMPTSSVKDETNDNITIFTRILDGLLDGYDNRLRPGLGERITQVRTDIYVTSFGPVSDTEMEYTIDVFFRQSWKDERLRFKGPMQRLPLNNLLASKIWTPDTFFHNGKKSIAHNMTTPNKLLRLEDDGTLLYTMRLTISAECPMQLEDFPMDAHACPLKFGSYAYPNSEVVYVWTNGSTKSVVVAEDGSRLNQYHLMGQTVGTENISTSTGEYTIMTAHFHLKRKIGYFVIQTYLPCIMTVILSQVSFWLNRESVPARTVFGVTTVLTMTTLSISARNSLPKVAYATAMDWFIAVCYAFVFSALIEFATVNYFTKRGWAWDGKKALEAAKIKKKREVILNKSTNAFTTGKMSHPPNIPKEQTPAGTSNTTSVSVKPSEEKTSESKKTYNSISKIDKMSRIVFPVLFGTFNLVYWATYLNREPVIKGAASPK
T1 sequence (P47870 25-512 partner limits assumed): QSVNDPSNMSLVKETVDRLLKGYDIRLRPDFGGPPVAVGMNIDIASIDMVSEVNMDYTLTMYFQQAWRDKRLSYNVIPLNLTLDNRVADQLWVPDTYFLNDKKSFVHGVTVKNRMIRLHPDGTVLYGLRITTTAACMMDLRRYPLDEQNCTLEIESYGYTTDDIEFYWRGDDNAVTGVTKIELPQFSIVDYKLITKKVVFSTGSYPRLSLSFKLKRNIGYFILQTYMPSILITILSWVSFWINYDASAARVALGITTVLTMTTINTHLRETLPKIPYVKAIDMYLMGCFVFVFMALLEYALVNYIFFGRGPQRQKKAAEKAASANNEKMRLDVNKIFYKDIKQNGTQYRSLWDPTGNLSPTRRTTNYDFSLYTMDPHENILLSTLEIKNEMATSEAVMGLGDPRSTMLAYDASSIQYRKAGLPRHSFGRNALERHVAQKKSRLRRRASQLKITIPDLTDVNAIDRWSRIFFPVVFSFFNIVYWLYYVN
T1 sequence (P18507 40-467 limits assumed): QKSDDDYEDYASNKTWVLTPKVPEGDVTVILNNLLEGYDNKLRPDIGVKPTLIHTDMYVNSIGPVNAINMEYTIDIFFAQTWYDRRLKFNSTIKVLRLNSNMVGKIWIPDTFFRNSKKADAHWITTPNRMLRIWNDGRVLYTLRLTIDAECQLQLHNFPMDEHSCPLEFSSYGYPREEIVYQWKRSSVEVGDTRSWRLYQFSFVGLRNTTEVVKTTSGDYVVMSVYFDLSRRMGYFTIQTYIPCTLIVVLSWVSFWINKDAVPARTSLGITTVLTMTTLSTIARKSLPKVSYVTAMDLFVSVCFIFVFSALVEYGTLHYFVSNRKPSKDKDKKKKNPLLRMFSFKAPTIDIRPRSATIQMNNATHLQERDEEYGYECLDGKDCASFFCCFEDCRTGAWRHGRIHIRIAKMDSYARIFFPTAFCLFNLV
Test: Positive allosteric modulator activity: potentiation of EC20 GABA current in oocytes
Assay type: cell-based
Conditions: read-out: GABA α5 Functional Data (potentiation), @ 100 nM, reported as ranges
Procedure: (B) Positive Allosteric Modulator Activity of Test Compounds on α5β2γ2 Subtype GABAAR
On day 1, 1 ng/32 nL of GABAA α5β2γ2 cDNA was injected into one oocyte. Test starts on day 2. The cDNA injected to the oocytes was a mix of alpha, beta and gamma, their ratio is 1:1:10 (by weight) and the total weight of the mixed 3 subunits to be injected in one oocyte was 1 ng in 32 nl volume. The injected oocytes can also be tested on day 3. In such case, the cDNA amount injected to the oocytes should be reduced by 20%.
Compounds of the present invention were tested using the following procedures.
• 1). 8 oocytes were placed in 8 chambers of OpusXpress and superfused with Modified Barth's Saline (MBS) at 3 mL/min. Glass electrodes back-filled with 3M KCl (0.5-3 megaohms) were used.
Control test (Diazepam or methyl 3,5-diphenylpyridazine-4-carboxylate) • 1). New oocytes was used to run new test. • 2). […] Oocytes were washed with MBS for 5-10 min. • 4). […] Itest was divided by IGABA to obtain potentiation (%). Test Compounds at Multiple Doses • 1). Repeat the above steps 1), 2) and 3) in the control test. • 2). […] Divide Itest by IGABA to obtain potentiation (%). • 3). Discard all tested oocytes, new oocytes were used and the above steps 1) and 2) were repeated to test second concentration of the same compound. Each oocyte was used for only one concentration test for a single test compound. The steps were repeated for other test compounds.

COCc1nnc2n1Cc1c(-c3ncco3)ncn1-c1ccc(Cl)cc1-2 [Compound 249]
activation at 0.1 µM: 20 to 50%

COc1ccc2c(c1)-n1nncc1Cc1c(C#CCc3ccccc3)ncn1-2 [Compound 413]
activation at 0.1 µM: 5 to 20%

FC(F)c1ncn2c1Cn1c(COc3ccccc3)nnc1-c1cc(Cl)ccc1-2 [Compound 200]
activation at 0.1 µM: 5 to 20%

COc1ccc2c(c1)-c1nnc(COc3ccccc3)n1Cc1c(Br)ncn1-2 [Compound 232]
activation at 0.1 µM: 5 to 20%

Cc1cccc(C)c1OCc1nnc2n1Cc1c(-c3noc(C(C)C)n3)ncn1-c1ccc(F)cc1-2 [Compound 190]
activation at 0.1 µM: 5 to 20%

CC(C)c1coc(-c2ncn3c2Cc2cnnn2-c2cc(Cl)ccc2-3)n1 [Compound 387]
activation at 0.1 µM: 20 to 50%

COc1ccc2c(c1)-c1nnc(COc3ccc(F)cc3)n1Cc1c(-c3noc(C(C)C)n3)ncn1-2 [Compound 172]
activation at 0.1 µM: > 50%

C#Cc1ncn2c1Cc1cnnn1-c1cc(Cl)ccc1-2 [Compound 356]
activation at 0.1 µM: > 50%

C#Cc1ncn2c1Cn1c(COc3ccccc3)nnc1-c1cc(OC)ccc1-2 [Compound 236]
activation at 0.1 µM: 5 to 20%

COCc1nnc2n1Cc1c(-c3nc(C)no3)ncn1-c1ccc(Cl)cc1-2 [Compound 198]
activation at 0.1 µM: 20 to 50%

COCc1nnc2n1Cc1c(-c3noc(C)n3)ncn1-c1ccc(OC)cc1-2 [Compound 164]
activation at 0.1 µM: 5 to 20%

CCOC(=O)c1ncn2c1Cn1c(COc3ccccc3)nnc1-c1cc(F)ccc1-2 [Compound 137]
activation at 0.1 µM: 20 to 50%

Clc1ccc2c(c1)-n1nncc1Cc1c(C3=N[C@H](c4ccccc4)CO3)ncn1-2 [Compound 358]
activation at 0.1 µM: 20 to 50%

Clc1ccc2c(c1)-c1nnc(COCc3ccccc3)n1Cc1c(-c3ncco3)ncn1-2 [Compound 350]
activation at 0.1 µM: > 50%

COc1ccc2c(c1)-c1nnc(COCc3ccccc3)n1Cc1c(C#N)ncn1-2 [Compound 166]
activation at 0.1 µM: 5 to 20%

COCc1nnc2n1Cc1c(C3=N[C@@H](c4ccc(OC)cc4)CO3)ncn1-c1ccc(Cl)cc1-2 [Compound 332]
activation at 0.1 µM: 5 to 20%

FC(F)(F)COCc1nnc2n1Cc1c(C3=N[C@@H](c4ccccc4)CO3)ncn1-c1ccc(Cl)cc1-2 [Compound 304]
activation at 0.1 µM: 5 to 20%

COc1ccc(C#Cc2ncn3c2Cc2cnnn2-c2cc(Cl)ccc2-3)cc1 [Compound 397]
activation at 0.1 µM: 20 to 50%

COc1ccc2c(c1)-c1nnc(COc3ccccc3)n1Cc1c(-c3noc(C(C)C)n3)ncn1-2 [Compound 171]
activation at 0.1 µM: > 50%

Cc1ncn2c1Cc1c(C)nnn1-c1ccccc1-2 [Compound 121]
activation at 0.1 µM: 5 to 20%

CC(C)OCc1nnc2n1Cc1c(C3=N[C@H](c4ccccc4)CO3)ncn1-c1ccc(Cl)cc1-2 [Compound 268]
activation at 0.1 µM: 5 to 20%

COc1ccc2c(c1)-n1nncc1Cc1c(C#CCc3ccccc3OC(F)(F)F)ncn1-2 [Compound 420]
activation at 0.1 µM: 5 to 20%

COCc1nnc2n1Cc1c(Br)ncn1-c1ccc(Cl)cc1-2 [Compound 217]
activation at 0.1 µM: 5 to 20%

CC(C)c1nc(-c2ncn3c2Cn2c(COc4cccnc4)nnc2-c2cc(F)ccc2-3)no1 [Compound 185]
activation at 0.1 µM: > 50%

COc1ccc2c(c1)-c1nnc(COc3ccc(F)cc3)n1Cc1c(C#N)ncn1-2 [Compound 191]
activation at 0.1 µM: 20 to 50%

COCc1nnc2n1Cc1c(-c3nc(C)co3)ncn1-c1ccc(Cl)cc1-2 [Compound 244]
activation at 0.1 µM: 5 to 20%

COc1ccc2c(c1)-c1nnc(COc3cccc(F)c3)n1Cc1c(C#N)ncn1-2 [Compound 196]
activation at 0.1 µM: 20 to 50%

CCOC(=O)c1ncn2c1Cn1c(Oc3ccccc3)nnc1-c1cc(OC)ccc1-2 [Compound 104]
activation at 0.1 µM: 5 to 20%

COc1ccc2c(c1)-c1nnc(COc3ccccc3)n1Cc1c(-c3noc(C)n3)ncn1-2 [Compound 162]
activation at 0.1 µM: 20 to 50%

CCOC(=O)c1ncn2c1Cc1c(CN3CCCC3)nnn1-c1cc(OC)ccc1-2 [Compound 48]
activation at 0.1 µM: 20 to 50%

CCOC(=O)c1ncn2c1Cc1c(CN(C)Cc3ccccc3)nnn1-c1cc(OC)ccc1-2 [Compound 51]
activation at 0.1 µM: 5 to 20%
